Measurements reported in the supplement of paper PMC8149375.

What was measured:
Details in all cases: treatment: drug alone; 5 days
TK-10 [1] = test: GI50, drug alone; higher = less potent
Method: (§1)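 Primary HTS: 8 RCC cell lines treated with 8 doses (up to 10 uM) of each library drug alone for 5 days; viability read by CellTiter-Glo and normalised to DMSO. GI50 was fitted with XLfit (4-parameter), AUC is the area under the dose-response curve, and minimum viability is the lowest fraction of DMSO viability across doses.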

SN12C [2] = test: GI50, drug alone; higher = less potent
Method: as §1

786-O [3] = test: GI50, drug alone; higher = less potent
Method: as §1

UO-31 [4] = test: GI50, drug alone; higher = less potent
Method: as §1

ACHN [5] = test: GI50, drug alone; higher = less potent
Method: as §1

CAKI-1 [6] = test: GI50, drug alone; higher = less potent
Method: as §1

A498 [7] = test: GI50, drug alone; higher = less potent
Method: as §1

769-P [8] = test: GI50, drug alone; higher = less potent
Method: as §1

TK-10 [9] = test: AUC of dose-response viability curve, drug alone (arbitrary (AUC of normalised viability)); higher = less growth inhibition
Method: as §1

SN12C [10] = test: as above
Method: as §1

786-O [11] = test: as above
Method: as §1

UO-31 [12] = test: as above
Method: as §1

ACHN [13] = test: as above
Method: as §1

CAKI-1 [14] = test: as above
Method: as §1

A498 [15] = test: as above
Method: as §1

769-P [16] = test: as above
Method: as §1

TK-10 [17] = test: minimum viability across doses, drug alone, relative to DMSO (fraction); higher = less growth inhibition
Method: as §1

SN12C [18] = test: as above
Method: as §1

786-O [19] = test: as above
Method: as §1

UO-31 [20] = test: as above
Method: as §1

ACHN [21] = test: as above
Method: as §1

CAKI-1 [22] = test: as above
Method: as §1

A498 [23] = test: as above
Method: as §1

769-P [24] = test: as above
Method: as §1

Compound | GI50, drug alone (786-O [3]) [µM] | GI50, drug alone (ACHN [5]) [µM] | GI50, drug alone (TK-10 [1]) [µM] | GI50, drug alone (SN12C [2]) [µM] | GI50, drug alone (UO-31 [4]) [µM] | GI50, drug alone (CAKI-1 [6]) [µM] | GI50, drug alone (A498 [7]) [µM] | GI50, drug alone (769-P [8]) [µM] | AUC of dose-response viability curve (TK-10 [9]) | AUC of dose-response viability curve (SN12C [10]) | AUC of dose-response viability curve (786-O [11]) | AUC of dose-response viability curve (UO-31 [12]) | AUC of dose-response viability curve (ACHN [13]) | AUC of dose-response viability curve (CAKI-1 [14]) | AUC of dose-response viability curve (A498 [15]) | AUC of dose-response viability curve (769-P [16]) | minimum viability across doses (TK-10 [17]) | minimum viability across doses (SN12C [18]) | minimum viability across doses (786-O [19]) | minimum viability across doses (UO-31 [20]) | minimum viability across doses (ACHN [21]) | minimum viability across doses (CAKI-1 [22]) | minimum viability across doses (A498 [23]) | minimum viability across doses (769-P [24])
Nc1ncnc2c1c(-c1cnc3[nH]ccc3c1)nn2C1CCCC1 [PP-121] | 0.429 | 0.455 | 0.415 | 1.04 | 1.53 | 0.583 | 2.73 | 1.35 | 2.1 | 2.54 | 2.13 | 3.41 | 2.23 | 2.37 | 3.11 | 2.53 | 0.0113 | 0.0559 | 0.00427 | 0.0162 | 0.0162 | 0.00982 | 0.0928 | 0.0337
Cl.N=C(N)NC(=N)NCCc1ccccc1 [Phenformin hydrochloride] | 1.5 | > 10 | 6.89 | 5.25 | 3.09 | > 10 | > 10 | > 10 | 2.95 | 2.87 | 2.31 | 3.11 | 3.53 | 3.22 | 3.42 | 3.29 | 0.333 | 0.0912 | 0.116 | 0.0295 | 0.682 | 0.821 | 0.514 | 0.841
Oc1cc(O)cc(/C=C/c2ccc(O)c(O)c2)c1 [Piceatannol] | 2.37 | > 10 | > 10 | > 10 | > 10 | 7.74 | > 10 | > 10 | 3.2 | 3.18 | 2.54 | 5.06 | 3.28 | 3.58 | 4.25 | 2.35 | 0.685 | 0.712 | 0.383 | 0.908 | 0.67 | 0.33 | 1.05 | 0.849
Br.Cc1ccc(C(=O)Cn2c3c(sc2=N)CCCC3)cc1 [Pifithrin-α] | > 10 | > 10 | > 10 | > 10 | > 10 | > 10 | > 10 | > 10 | 2.84 | 3.09 | 1.95 | 3.69 | 3.14 | 3.26 | 4.11 | 3.5 | 0.636 | 0.76 | 0.385 | 0.864 | 0.743 | 0.871 | 0.946 | 0.918
Nc1cccc2c1C(=O)N(C1CCC(=O)NC1=O)C2=O (stereo not given) [Pomalidomide] | 0.00888 | > 10 | > 10 | > 10 | > 10 | > 10 | > 10 | > 10 | 3.12 | 3.38 | 2 | 3.85 | 3.14 | 3.49 | 3.01 | 3.35 | 0.818 | 0.884 | 0.424 | 1.01 | 0.85 | 0.924 | 0.732 | 0.887
O=c1c(O)c(-c2ccc(O)c(O)c2)oc2cc(O)cc(O)c12 [Quercetin (Sophoretin)] | > 10 | > 10 | > 10 | > 10 | > 10 | > 10 | > 10 | > 10 | 3.01 | 3.13 | 2.36 | 3.57 | 3.48 | 3.2 | 3.6 | 3.3 | 0.736 | 0.821 | 0.53 | 0.807 | 0.899 | 0.861 | 0.923 | 0.784

Second part, led by results:

GI50, drug alone (786-O [3]) [µM] | GI50, drug alone (ACHN [5]) [µM] | Compound | GI50, drug alone (TK-10 [1]) [µM] | GI50, drug alone (SN12C [2]) [µM] | GI50, drug alone (UO-31 [4]) [µM] | GI50, drug alone (CAKI-1 [6]) [µM] | GI50, drug alone (A498 [7]) [µM] | GI50, drug alone (769-P [8]) [µM] | AUC of dose-response viability curve (TK-10 [9]) | AUC of dose-response viability curve (SN12C [10]) | AUC of dose-response viability curve (786-O [11]) | AUC of dose-response viability curve (UO-31 [12]) | AUC of dose-response viability curve (ACHN [13]) | AUC of dose-response viability curve (CAKI-1 [14]) | AUC of dose-response viability curve (A498 [15]) | AUC of dose-response viability curve (769-P [16]) | minimum viability across doses (TK-10 [17]) | minimum viability across doses (SN12C [18]) | minimum viability across doses (786-O [19]) | minimum viability across doses (UO-31 [20]) | minimum viability across doses (ACHN [21]) | minimum viability across doses (CAKI-1 [22]) | minimum viability across doses (A498 [23]) | minimum viability across doses (769-P [24])
5.75 | > 10 | COc1ccc(COc2cc3oc(=O)c4cc(C(C)O)ccc4c3cc2OC)cc1 (stereo not given) [Palomid 529] | > 10 | > 10 | > 10 | > 10 | > 10 | > 10 | 2.69 | 3.3 | 2.56 | 5.25 | 3.5 | 3.57 | 4.44 | 3.39 | 0.633 | 0.844 | 0.251 | 1.2 | 0.893 | 0.668 | 1.12 | 0.854
< 0.003 | 5.26 | Cc1ccc(Nc2nccc(N(C)c3ccc4c(C)n(C)nc4c3)n2)cc1S(N)(=O)=O.Cl [Pazopanib HCl] | > 10 | 5.96 | > 10 | 6.83 | > 10 | > 10 | 3.14 | 3.1 | 2.85 | 4.39 | 3.21 | 3.09 | 3.57 | 3.18 | 0.661 | 0.193 | 0.427 | 0.63 | 0.224 | 0.0579 | 0.514 | 0.207
0.589 | 0.0629 | CCOc1cc2ncc(C#N)c(Nc3ccc(F)c(Cl)c3)c2cc1NC(=O)/C=C/CN(C)C [Pelitinib (EKB-569)] | 0.161 | 0.995 | 1.08 | 0.209 | 2.19 | 0.357 | 1.75 | 2.38 | 2.08 | 3.24 | 1.41 | 1.87 | 2.96 | 2.02 | 0.01 | 0.0102 | 0.00469 | 0.027 | 0.00498 | 0.0302 | 0.0185 | 0.0352
1.36 | 3.48 | CC(C)(C)c1cc(NC(=O)Nc2ccc(-c3cn4c(n3)sc3cc(OCCN5CCOCC5)ccc34)cc2)no1 [Quizartinib (AC220)] | > 10 | > 10 | > 10 | 2.62 | > 10 | 4.3 | 2.84 | 3.25 | 2.76 | 5.25 | 2.72 | 2.38 | 4.53 | 2.98 | 0.612 | 0.819 | 0.129 | 1.16 | 0.381 | 0.408 | 1.07 | 0.234
